Consider one molecule from patent US20160326098A1, “Pharmaceutically Active Compound for Use as Anti-inflammatory Agent” (Pax Forschung GmbH, priority 2013, published 2016).

The test system of the data set is nitrite/nitrate (NOx). As to the kind of experiment: Nitrite/nitrate level, colitis animals, comparison with GM-20 (FIG. 35). The class given is in vivo, rats. Particulars: 1.11 mmol/kg body weight, vs sham control group P. On the procedure: The levels of plasma nitrite/nitrate (NOx), stable end products of NO were measured by the Griess reaction. This assay depends on the reduction of nitrate to nitrite, which is then converted into a colored azo dye compound that is detected spectrophotometrically at 540 nm.
The above-described clinical studies were repeated with animals having colitis which was induced as described above. 20 animals (rats) were randomly divided into four groups, wherein group L served as sham-operated control, having no colitis, group M served as second control having colitis but receiving no further treatment, group N having colitis and being treated with 1.11 mmol/kg body weight of ASS and group O having colitis and being treated with 1.11 mmol/kg of the compound according to the invention. One day after the animals received the enema with TNBS (40 mg/kg i.c.), wherein the animals of group L only received the respective solvent, the animals of group N and O were treated with ASS and the compound according to the invention, respectively. The other animals only received the respective solvent again. Two days after the enema the effects of the treatment were determined by measurement of body weight, blood gas analysis and biopsy. […] Surgery was performed to allow registration of the hemodynamic parameters at 1 h intervals for 6 h (cardiac output [CO] data were measured only at the end of the experiments). […] In addition, fluorescence confocal endomicroscopy was performed to examine the microvasculature and morphologic changes of the mucosa of the distal colon, and full-thickness tissue samples and venous blood samples were taken to determine the biochemical changes in the colon and plasma.
The tests were conducted according to the above described protocol. […] Comparative compound GM-20 is described in the state of the art as being suitable for the therapeutic treatment pathologic disorders characterized by degranulation of the mast cells caused by immunogenic hyperstimulation (see U.S. Pat. No. 5,506,224) The nitrite/nitrate level was measured as described above.

As for `CC(=O)Oc1ccccc1C(=O)NCCO` [GM-20], the nitrite/nitrate level result is “increased nitrite/nitrate level”.
